The subject of the test is passively sensitized strip of pulmonary parenchyma (guinea pig). The test is described as follows: inhibition of antigen-induced constriction of passively sensitized guinea pig pulmonary parenchyma strips in vitro (organ bath). Type of test: cell-based, guinea pig (Pirbright-White). To be noted: Cavia porcellus, 20 min; Superfusion; Concentration 10/μM (so in the source); test substance preincubated 20 minutes at 37° C., then ovalbumin constriction; percentage reduction of constriction amplitude vs untreated control constrictions. The text has this: Activity of the inventive compounds was shown by the following testing in vitro. […] The method employed was as described herewith:
Pirbright-White guinea pigs were stunned by a blow to the neck and bled. The lungs were flushed largely free of blood in situ with Krebs' buffer, pH 7.4.
Then the lung was removed, cut into strips (approx. 20×4×4 mm) and the strips were passively sensitized for one hour at room temperature with a 1:50 dilution of a homologous anti-ovalbumin antiserum and then washed once with Krebs' buffer.
The antiserum had previously been produced as described by Davies et al., (Quantitative studies on anaphylaxis in guinea pigs passively sensitized with homologous antibody. Inter. Arch. Allergy 41, 648-654 (1971)) in guinea pigs of the same strain by repeated injection of ovalbumin (2×crystallized) with the addition of complete Freund's adjuvant (Until it was used, the antiserum was stored undiluted at -18° C.).
Then the lung strips were fixed singly with one end to the bottom of 10-milliliter organ baths, and with the upper end to isometric measuring devices for the recording of the constrictions of the lung strips through an amplifier on a plotter. The tenseron was adjusted to 1.2 g weight.
Then the baths were filled with Krebs' buffer and continually gassed at 37° C. with O2 (95%) and CO2 (5%).
After a 30-minute equilibration phase, histamine control spasms were produced in order to establish the reactivity of the lung specimens, washed, then the test substance was preincubated for 20 minutes at 37° C., and the ovalbumin constriction was produced.
The inhibiting action of the compounds according to the invention was expressed as percentage reduction of the constriction amplitude of the "specimens with the test substance" in proportion to the "untreated control constrictions."
In general, inhibition refers to the share of the control response that was lost under treatment. Consider `COc1cccc(CN(c2ncnc3[nH]ncc23)C2CCCC2)c1` [Example 2d, 4-[N--(3-methoxybenzyl)-cyclopentylamino]-1H--pyrazolo[3,4-d]pyrimidine], for which the inhibition at 10 µM was 36%. As to `CCOC(=O)c1cccc(CN(c2ncnc3[nH]ncc23)C2CCCC2)c1` [Example 2g, 4-[N--(3-ethoxycarbonylbenzyl)-cyclopentylamino]-1H--pyrazolo[3,4-d]pyrimidine], the inhibition at 10 µM amounted to 40%. With `N#Cc1cccc(CN(c2ncnc3[nH]ncc23)C2CCCC2)c1` [Example 2i, 4-[N--(3-cyanobenzyl)-cyclopentylamino]-1H--pyrazolo[3,4-d]pyrimidine], the inhibition at 10 µM amounted to 35%. In the case of `Clc1ccc(Cl)c(CN(c2ncnc3[nH]ncc23)C2CCCC2)c1` [Example 2j, 4-[N--(2,5-dichlorobenzyl)-cyclopentylamino] -1H--pyrazolo[3,4-d]pyrimidine] it was 29%. Turning to `Clc1ccc(CN(c2ncnc3[nH]ncc23)C2CCCC2)cc1Cl` [Example 2k, 4-[N--(3,4-dichlorobenzyl)-cyclopentylamino]-1H--pyrazolo[3,4-d]pyrimidine], the inhibition at 10 µM was 32%.

Take `Cc1ccc(Cl)cc1CN(c1ncnc2[nH]ncc12)C1CCCC1` [Example 2l, 4-[N--(5-chloro-2-methylbenzyl)-cyclopentylamino]-1H--pyrazolo[3,4-d]pyrimidine]: the inhibition at 10 µM is 32%. Regarding `Cc1ccc(C)c(CN(c2ncnc3[nH]ncc23)C2CCCC2)c1` [Example 2n, 4-[N--(2,5-dimethylbenzyl)-cyclopentylamino]-1H--pyrazolo[3,4-d]pyrimidine], the inhibition at 10 µM turned out to be 32%. As to `c1coc(CN(c2ncnc3[nH]ncc23)C2CCCC2)c1` [Example 2o, 4-[N--(2-furylmethyl)-cyclopentylamino]-1H--pyrazolo[3,4-d]pyrimidine], the inhibition at 10 µM is 39%.

On to `c1csc(CN(c2ncnc3[nH]ncc23)C2CCCC2)c1` [Example 2p, 4-[N--(thiophen-2-ylmethyl)-cyclopentylamino]-1H--pyrazolo[3,4-d]pyrimidine], for which the inhibition at 10 µM was 37%. On to `OCC(O)Cn1ncc2c(N(Cc3cccc(C(F)(F)F)c3)C3CCCC3)ncnc21` (stereo not shown) [Example 4b, 4-[N--(3-trifluoromethylbenzyl)-cyclopentylamino]-1-(2,3-dihydroxypropyl)-1H--pyrazolo[3,4-d]pyrimidine], for which the inhibition at 10 µM is 36%.
